Where “and” joins values, the source holds several entries; their conditions need not be identical. Identical values can stand only once. Toxic doses and inconclusive results are not listed.
System: BDF1 mice, P388/ADR leukemia ip, median survival T/C
Assay: NCI In Vivo Anticancer Drug Screen. Data for tumor model P388 Leukemia resistant to Adriamycin; NSC 123127, Developed at Scr 06 and 41 (intraperitoneal) in B6D2F1 (BDF1) mice
Settings: endpoint: median survival time, higher = longer survival
Protocol: The antitumor activity of compounds was measured in mice bearing transplantable tumors. Survival or tumor size were measured and the results are expressed as the measurement made in the treated group (T) divided by the measurement made in the vehicle treated control group (C). The tumor model used in this assay is P388 Leukemia resistant to Adriamycin; NSC 123127, Developed at Scr 06 and 41 (intraperitoneal) in B6D2F1 (BDF1) mice

[1] = dose: 18.0 mg/kg/injection, schedule: Q04DX003 (ip), vehicle: saline
[2] = dose: 6.48 mg/kg/injection, schedule: Q04DX003 (ip), vehicle: saline
[3] = dose: 10.8 mg/kg/injection, schedule: Q04DX003 (ip), vehicle: saline
[4] = dose: 1.44 mg/kg/injection, schedule: Q04DX003 (ip), vehicle: water
[5] = dose: 2.4 mg/kg/injection, schedule: Q04DX003 (ip), vehicle: water
[6] = dose: 30.0 mg/kg/injection, schedule: Q04DX003 (ip), vehicle: saline

COC1C(O)C(C)OC(OC2C(Oc3cccc4c(O)c5c(=O)oc6ccc(C)c7c(=O)oc(c34)c5c67)OC(C)C(O)C2O)C1O (stereo not drawn)
T/C (dose: 43.2 mg/kg/injection, schedule: Q04DX003 (ip), vehicle: Klucel (hydroxypropylcellulose) (HPC)): 87 % of control

CC[C@H]1CN2CCc3cc(OC)c(OC)cc3[C@@H]2C[C@@H]1C[C@H]1NCCc2cc(OC)c(OC)cc21
T/C (dose: 7.78 mg/kg/injection, schedule: Q04DX003 (ip), vehicle: saline): 106 % of control
T/C (dose: 9.0 mg/kg/injection, schedule: Q04DX003 (ip), vehicle: saline): 94 % of control
T/C (dose: 13.0 mg/kg/injection, schedule: Q04DX003 (ip), vehicle: saline): 114 % of control
T/C [1]: 100 % of control
T/C (dose: 21.6 mg/kg/injection, schedule: Q04DX003 (ip), vehicle: saline): 106 % of control

CC[C@@]1(O)C[C@H](OC2CC(N(C)C)C(OC3CC(O)C(OC4CCC(=O)C(C)O4)C(C)O3)C(C)O2)c2c(cc3c(c2O)C(=O)c2c(O)ccc(O)c2C3=O)[C@H]1C(=O)OC (stereo partly drawn)
T/C (dose: 0.65 mg/kg/injection, schedule: Q01DX009 (ip), vehicle: water): 110 % of control
T/C (dose: 1.08 mg/kg/injection, schedule: Q01DX009 (ip), vehicle: water): 120 % of control
T/C (dose: 1.73 mg/kg/injection, schedule: Q04DX003 (ip), vehicle: water): 115 % of control and 124 % of control
T/C (dose: 2.5 mg/kg/injection, schedule: Q04DX003 (ip), vehicle: water): 116 % of control
T/C (dose: 2.88 mg/kg/injection, schedule: Q04DX003 (ip), vehicle: water): 119 % of control
T/C (dose: 3.0 mg/kg/injection, schedule: Q01DX009 (ip), vehicle: water): 90 % of control
T/C (dose: 4.8 mg/kg/injection, schedule: Q04DX003 (ip), vehicle: other): 119 % of control
T/C (dose: 4.8 mg/kg/injection, schedule: Q04DX003 (ip), vehicle: water): 150 % of control
T/C (dose: 5.0 mg/kg/injection, schedule: Q04DX003 (ip), vehicle: water): 110 % of control

COc1cccc2c1C(=O)c1c(O)c3c(c(O)c1C2=O)C[C@@](O)(/C(C)=N/NC(=O)c1ccccc1)C[C@@H]3OC1CC(N)C(O)C(C)O1 (stereo partly drawn)
T/C (dose: 6.5 mg/kg/injection, schedule: Q04DX003 (ip), vehicle: water): 107 % of control
T/C (dose: 10.8 mg/kg/injection, schedule: Q04DX003 (ip), vehicle: water): 115 % of control
T/C (dose: 18.0 mg/kg/injection, schedule: Q04DX003 (ip), vehicle: water): 105 % of control

CC(=O)c1cccc(NC2C(N)C(NC(=O)N(C)C)(C(C)O)C(C)(O)C2(O)COC(=O)c2c(C)cccc2O)c1 (stereo not drawn)
T/C (dose: 5.18 mg/kg/injection, schedule: Q04DX003 (ip), vehicle: alkali diluted with saline): 90 % of control
T/C (dose: 6.5 mg/kg/injection, schedule: Q04DX003 (ip), vehicle: alkali diluted with saline): 114 % of control
T/C (dose: 8.64 mg/kg/injection, schedule: Q04DX003 (ip), vehicle: alkali diluted with saline): 89 % of control
T/C (dose: 14.4 mg/kg/injection, schedule: Q04DX003 (ip), vehicle: alkali diluted with saline): 87 % of control

CCC1(O)CC2CN(CCc3c([nH]c4ccccc34)C(C(=O)OC)(c3cc4c(cc3OC)N(C)C3C(O)(C(N)=O)C(O)C5(CC)C=CCN6CCC43C65)C2)C1 (stereo not drawn) (tested in a mixture with another compound)
T/C (dose: 0.65 mg/kg/injection, schedule: Q04DX003 (ip), vehicle: saline): 107 % of control
T/C (dose: 1.08 mg/kg/injection, schedule: Q04DX003 (ip), vehicle: saline): 111 % of control
T/C (dose: 1.8 mg/kg/injection, schedule: Q04DX003 (ip), vehicle: saline): 101 % of control
T/C (dose: 3.0 mg/kg/injection, schedule: Q04DX003 (ip), vehicle: saline): 86 % of control

CN(Cc1cnc2nc(N)nc(N)c2n1)c1ccc(C(=O)N[C@@H](CCC(=O)O)C(=O)O)cc1
T/C (dose: 10.8 mg/kg/injection, schedule: Q04DX003 (ip), vehicle: sodium bicarbonate): 158 % of control
T/C (dose: 18.0 mg/kg/injection, schedule: Q04DX003 (ip), vehicle: sodium bicarbonate): 188 % of control
T/C (dose: 30.0 mg/kg/injection, schedule: Q04DX003 (ip), vehicle: sodium bicarbonate): 166 % of control
T/C (dose: 50.0 mg/kg/injection, schedule: Q04DX003 (ip), vehicle: sodium bicarbonate): 111 % of control

O=CC(NC(=O)N(CCCl)N=O)C(O)C(O)C(O)CO (stereo not drawn)
T/C [2]: 240 % of control
T/C [3]: 553 % of control
T/C [1]: 120 % of control

CCC1(O)CC(OC2CC(N(C)C)C(OC3CC4OC5CC(=O)C(C)OC5OC4C(C)O3)C(C)O2)c2c(cc3c(c2O)C(=O)c2c(O)ccc(O)c2C3=O)C1C(=O)OC (stereo not drawn)
T/C (dose: 0.86 mg/kg/injection, schedule: Q04DX003 (ip), vehicle: water): 112 % of control
T/C (dose: 1.3 mg/kg/injection, schedule: Q04DX003 (ip), vehicle: water): 115 % of control
T/C [4]: 120 % of control
T/C [5]: 124 % of control

COc1cccc2c1C(=N)c1c(O)c3c(c(O)c1C2=O)C[C@@](O)(C(C)=O)C[C@@H]3OC1CC(N)C(O)C(C)O1 (stereo partly drawn)
T/C (dose: 3.46 mg/kg/injection, schedule: Q04DX003 (ip), vehicle: saline): 99 % of control
T/C (dose: 5.76 mg/kg/injection, schedule: Q04DX003 (ip), vehicle: saline): 102 % of control
T/C (dose: 9.6 mg/kg/injection, schedule: Q04DX003 (ip), vehicle: saline): 115 % of control
T/C (dose: 16.0 mg/kg/injection, schedule: Q04DX003 (ip), vehicle: saline): 104 % of control

Nc1ncn(C2OC(CO)C(O)C2O)c(=O)n1 (stereo not drawn)
T/C [2]: 210 % of control
T/C [3]: 191 % of control
T/C [1]: 184 % of control
T/C [6]: 87 % of control

CC(=O)[C@]1(O)Cc2c(O)c3c(c(O)c2[C@@H](OC2CC(N)C(O)C(C)O2)C1)C(=O)c1c(O)cccc1C3=O (stereo partly drawn)
T/C (dose: 0.32 mg/kg/injection, schedule: Q04DX003 (ip), vehicle: water): 108 % of control
T/C (dose: 0.39 mg/kg/injection, schedule: Q04DX003 (ip), vehicle: water): 118 % of control
T/C (dose: 0.54 mg/kg/injection, schedule: Q04DX003 (ip), vehicle: water): 88 % of control
T/C (dose: 0.65 mg/kg/injection, schedule: Q04DX003 (ip), vehicle: water): 123 % of control

COc1cc(NS(C)(=O)=O)ccc1Nc1c2ccccc2nc2ccccc12
T/C (dose: 3.6 mg/kg/injection, schedule: Q04DX003 (ip), vehicle: other): 123 % of control
T/C (dose: 5.4 mg/kg/injection, schedule: Q04DX003 (ip), vehicle: clinical formulation): 106 % of control
T/C (dose: 9.0 mg/kg/injection, schedule: Q04DX003 (ip), vehicle: clinical formulation): 114 % of control

O=C1N[C@@H]([C@H]2CC[C@H](Cl)CN2)C(=O)N[C@H]1[C@H]1CC[C@H](Cl)CN1
T/C [4]: 158 % of control
T/C [5]: 213 % of control
T/C (dose: 4.0 mg/kg/injection, schedule: Q04DX003 (ip), vehicle: water): 221 % of control
T/C (dose: 6.67 mg/kg/injection, schedule: Q04DX003 (ip), vehicle: water): 122 % of control

COc1cc([C@@H]2c3cc4c(cc3[C@@H](OC3OC5COC(C)OC5C(O)C3O)[C@H]3COC(=O)[C@H]23)OCO4)cc(OC)c1O (stereo partly drawn)
T/C (dose: 18.0 mg/kg/injection, schedule: Q04DX003 (ip), vehicle: Klucel (hydroxypropylcellulose) (HPC)): 110 % of control
T/C (dose: 30.0 mg/kg/injection, schedule: Q04DX003 (ip), vehicle: Klucel (hydroxypropylcellulose) (HPC)): 119 % of control
T/C (dose: 50.0 mg/kg/injection, schedule: Q04DX003 (ip), vehicle: Klucel (hydroxypropylcellulose) (HPC)): 112 % of control

COc1cccc2c1C(=O)c1c(O)c3c(c(O)c1C2=O)CC(O)(C(=O)CO)CC3OC1CC(N)C(O)C(C)O1 (stereo not drawn)
T/C (dose: 1.73 mg/kg/injection, schedule: Q01DX004 (ip), vehicle: water): 103 % of control
T/C [2]: 107 % of control
T/C [3]: 93 % of control
T/C [1]: 106 % of control
T/C [6]: 94 % of control

O=NN(CCCl)C(=O)NCCCl
T/C (dose: 13.0 mg/kg/injection, schedule: Q01DX001 (ip), vehicle: saline + alcohol): 169 % of control
T/C (dose: 21.6 mg/kg/injection, schedule: Q01DX001 (ip), vehicle: saline + alcohol): 499 % of control
T/C (dose: 36.0 mg/kg/injection, schedule: Q01DX001 (ip), vehicle: saline + alcohol): 499 % of control

COc1cc2cc3c4cc(OC)c(OC)cc4cc[n+]3c(C)c2cc1OC (tested in a mixture with another compound)
T/C (dose: 86.4 mg/kg/injection, schedule: Q04DX003 (ip), vehicle: other): 103 % of control
T/C (dose: 144.0 mg/kg/injection, schedule: Q04DX003 (ip), vehicle: other): 95 % of control

CC[C@@]1(O)C[C@H](OC2CC(N(C)C)C(O)C(C)O2)c2c(cc3c(c2O)C(=O)c2c(O)ccc(O)c2C3=O)[C@H]1C(=O)OC (stereo partly drawn)
T/C (dose: 4.32 mg/kg/injection, schedule: Q04DX003 (ip), vehicle: other): 110 % of control
T/C (dose: 7.2 mg/kg/injection, schedule: Q04DX003 (ip), vehicle: other): 109 % of control
T/C (dose: 12.0 mg/kg/injection, schedule: Q04DX003 (ip), vehicle: other): 104 % of control
T/C (dose: 20.0 mg/kg/injection, schedule: Q04DX003 (ip), vehicle: other): 110 % of control

Reference: PubChem BioAssay AID182 (DTP/NCI, 2004)
